{"source": "patent US8642656B2", "about": "“Calixarene-based peptide conformation mimetics, methods of use, and methods of making” (priority 2004, dated 2014)", "key": {"B16F10 tumor": {"system": "B16F10 tumor", "assay": "TUNEL staining for total cell apoptosis, B16F10 tumors", "assay_type": "in vivo, mice", "conditions": "B16F10, 10 mg/kg; mean ± standard error, 20 images", "experimental": "To assess the extent of total cell apoptosis, tumor tissue sections were stained by using the TUNEL (terminal deoxyribonucleotidyl transferase-mediated dUTP-nick-end labeling) assay, which was performed according to the manufacturer's instructions (In situ cell death detection kit, fluorescein; TUNEL, Roche). After 1-hour incubation at room temperature, slides were washed with PBS and immediately imaged using an Olympus BX-60 fluorescence microscope at 200× magnification."}, "LPS from S. marcascens": {"system": "LPS from S. marcascens", "assay": "LPS neutralization assay (Limulus amoebocyte lysate, QCL-1000)", "assay_type": "biochemical, Serratia marcascens", "conditions": "read-out: IC50 values (μM) for LPS binding, Serratia", "method_in_brief": "(§1)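 Chromogenic LAL assay; LPS at 0.04 units (0.01 ng for P. aeruginosa and E. coli 0111:B4, 0.03 ng for S. typhimurium and S. marcascens). pNA release read at 405-410 nm. IC50 by sigmoidal dose-response fit.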"}, "B16F10 tumor vessels": {"system": "B16F10 tumor vessels", "assay": "Histological analysis of microvessel density, anti-CD31 staining, B16F10 tumors", "assay_type": "in vivo, mice", "conditions": "B16F10, 10 mg/kg; mean ± standard error, 20 images", "experimental": "Immunohistochemistry was used to assess microvessel density and the extent of total cell apoptosis. Approximately, tumors of the same size and with no apparent necrosis were selected for processing. On the last day of treatment mice were sacrificed and tumors were excised. Tumor tissue was embedded in tissue freezing medium (Miles Inc, Elkart, Ind.) and shock frozen in liquid nitrogen. Sections of tissue (10 μm thickness) were prepared for immunohistochemical analysis. For this, tissue sections were brought to room temperature, air dried overnight, and then fixed in acetone for 10 minutes. Slides were allowed to air dry for at least 30 minutes and were washed three limes for 5 minutes each in phosphate-buffered saline (PBS, pH 7.4). Samples were then blocked with PBS containing 0.1% bovine serum albumin and 3% human serum albumin for at least 30 minutes at room temperature in a humidified box. Samples were subsequently incubated with phycoerytrin (PE)-conjugated monoclonal antibody to CD31 (PECAM-1) in a 1:50 dilution (Pharmigen, San Diego, Calif.) to stain for microvessel density.\nDigital images were stored and processed using Adobe Photoshop (Adobe Inc., Mountain View Calif.). Quantification of microvessel density, were determined as described previously (Dings et al., Cancer Res 63, 382-385 (2003)). Statistical analysis was performed using the Student's t-test."}, "fibroblasts": {"system": "fibroblasts", "assay": "Proliferation of fibroblasts (general cell toxicity check)", "assay_type": "cell-based"}, "bFGF-stimulated HUVEC": {"system": "bFGF-stimulated HUVEC", "assay": "EC proliferation, [3H]-thymidine incorporation, bFGF-stimulated HUVEC (Example 48)", "assay_type": "cell-based, human", "conditions": "for IC50: bFGF-stimulated HUVEC, highest dose tested 25 μM; for activity as anti-angiogenic agents, ranking in words: library of 23 compounds", "experimental": "Proliferation is expressed as mean counts per minute (cpm) of quadruplicate cultures in three independent experiments (±SEM). […] Human umbilical vein derived EC (HUVEC) were harvested from normal human umbilical cords by perfusion with 0.125% trypsin/EDTA. Harvested HUVECs were cultured in gelatin coated tissue culture flasks and subcultured 1:3 once a week in culture medium (RPM1-1640 with 20% human serum (HS), supplemented with 2 mM glutamine and 100 U/mL penicillin and 0.1 mg/mL streptomycin). Statistical analysis was performed by using the Student's t-test."}, "LPS from P. aeruginosa": {"system": "LPS from P. aeruginosa", "assay": "LPS neutralization assay (Limulus amoebocyte lysate, QCL-1000)", "assay_type": "biochemical, Pseudomonas aeruginosa", "conditions": "read-out: IC50 values (μM) for LPS binding, P.a.", "method_in_brief": "as §1"}, "[1]": {"assay": "Hematocrit levels, first (MA148) study", "assay_type": "in vivo, mice", "conditions": "last day of treatment, vehicle 47±5.7", "experimental": "As an indirect measurement of general toxicity, body weights of mice were monitored twice weekly, using a digital balance (Ohaus Florham, N.J.). To determine hematocrit levels, blood samples were extracted by tail vein bleedings one day after terminating treatment, and blood was collected in heparinized micro-hematocrit capillary lubes (Fisher Pittsburgh, Pa.). Samples were spun down for 10 minutes in a micro-hematocrit centrifuge (Clay-Adams; NY), and the amount of hematocrit was determined using an international microcapillary reader (IEC; Needham, Mass.)."}, "[2]": {"system": "LPS from E. coli serotype 0111:B4", "assay": "LPS neutralization assay (Limulus amoebocyte lysate, QCL-1000)", "assay_type": "biochemical", "conditions": "read-out: IC50 values (μM) for LPS binding, E. coli 0111:B4", "method_in_brief": "as §1"}, "[3]": {"system": "LPS from E. coli serotype 055:B5", "assay": "LPS neutralization assay (Limulus amoebocyte lysate, QCL-1000)", "assay_type": "biochemical", "method_in_brief": "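LPS (0.04 units per strain) is mixed with compound and Limulus amoebocyte lysate. Proenzyme activation is then followed by chromogenic substrate cleavage and pNA absorbance at 405-410 nm. Dose-response curves are fit sigmoidally to give IC50.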"}, "[4]": {"conditions": "Table 3, errors estimated ±30%, read-out: IC50 values (μM) for LPS binding, E. coli 055:B5"}}, "note": "Like-named read-outs stand apart in the source and are kept apart here."}
{"compound": "5,11,17,23-Tetra-tert-butyl-25,27-bis(2-guanidinoethoxy)-26,28-dihydroxy calix[4]arene trifluoroacetic acid salt [Compound 27]", "values": [{"measurement": "Apoptosis", "setting": "B16F10 tumor", "result": "2357 ± 103", "unit": "pixel counts per image"}, {"measurement": "IC50", "setting": "LPS from S. marcascens; Table 3, errors estimated ±30%", "result": "> 5", "unit": "µM"}, {"measurement": "Branch Points", "setting": "B16F10 tumor vessels", "result": "3.5 ± 0.5", "unit": "pixel counts per image"}, {"measurement": "End Points", "setting": "B16F10 tumor vessels", "result": "35.2 ± 4.0", "unit": "pixel counts per image"}, {"measurement": "Vessel Density", "setting": "B16F10 tumor vessels", "result": "10743 ± 764", "unit": "pixel counts per image"}, {"measurement": "Vessel Length", "setting": "B16F10 tumor vessels", "result": "7.5 ± 0.6", "unit": "pixel counts per image"}, {"measurement": "IC50", "setting": "fibroblasts; read-out: concentration giving 50% growth inhibition, fibroblasts", "result": "~20", "unit": "µM"}, {"measurement": "IC50", "setting": "bFGF-stimulated HUVEC", "result": 8, "unit": "µM"}, {"measurement": "activity as anti-angiogenic agents, ranking in words", "setting": "bFGF-stimulated HUVEC", "result": "most active as anti-angiogenic agents"}, {"measurement": "IC50", "setting": "LPS from P. aeruginosa; Table 3, errors estimated ±30%", "result": "> 5", "unit": "µM"}, {"measurement": "Hematocrit levels ±SD", "setting": "[1]; 2.7 mg/kg", "result": "46.5±0.7 percentage of red blood cells"}, {"measurement": "Hematocrit levels ±SD", "setting": "[1]; 10 mg/kg", "result": "47±4.2 percentage of red blood cells"}, {"measurement": "IC50", "setting": "[2]; Table 3, errors estimated ±30%", "result": "> 5", "unit": "µM"}, {"measurement": "IC50", "setting": "[3]; [4]", "result": "> 5", "unit": "µM"}]}
{"compound": "CN(C)CCNC(=O)COc1c2cccc1Cc1cccc(c1OCC(=O)NCCN(C)C)Cc1cccc(c1OCC(=O)NCCN(C)C)Cc1cccc(c1OCC(=O)NCCN(C)C)C2", "note": "[Compound 40]", "values": [{"measurement": "Apoptosis", "setting": "B16F10 tumor", "result": "2807 ± 140", "unit": "pixel counts per image"}, {"measurement": "IC50", "setting": "LPS from S. marcascens; Table 2", "result": "> 5", "unit": "µM"}, {"measurement": "IC50", "setting": "LPS from S. marcascens; Table 3, errors estimated ±30%", "result": "> 5", "unit": "µM"}, {"measurement": "Branch Points", "setting": "B16F10 tumor vessels", "result": "5.2 ± 0.7", "unit": "pixel counts per image"}, {"measurement": "End Points", "setting": "B16F10 tumor vessels", "result": "21.9 ± 2.6", "unit": "pixel counts per image"}, {"measurement": "Vessel Density", "setting": "B16F10 tumor vessels", "result": "10231 ± 1330", "unit": "pixel counts per image"}, {"measurement": "Vessel Length", "setting": "B16F10 tumor vessels", "result": "8.6 ± 1.2", "unit": "pixel counts per image"}, {"measurement": "concentration giving 50% growth inhibition, fibroblasts", "setting": "fibroblasts", "result": "no delectable effects"}, {"measurement": "IC50", "setting": "bFGF-stimulated HUVEC", "result": 2, "unit": "µM"}, {"measurement": "activity as anti-angiogenic agents, ranking in words", "setting": "bFGF-stimulated HUVEC", "result": "most active as anti-angiogenic agents"}, {"measurement": "IC50", "setting": "LPS from P. aeruginosa; Table 2", "result": "> 5", "unit": "µM"}, {"measurement": "IC50", "setting": "LPS from P. aeruginosa; Table 3, errors estimated ±30%", "result": "> 5", "unit": "µM"}, {"measurement": "Hematocrit levels ±SD", "setting": "[1]; 2.4 mg/kg", "result": "50±1.4 percentage of red blood cells"}, {"measurement": "Hematocrit levels ±SD", "setting": "[1]; 10 mg/kg", "result": "49.5±2.1 percentage of red blood cells"}, {"measurement": "IC50", "setting": "[2]; Table 2", "result": "> 5", "unit": "µM"}, {"measurement": "IC50", "setting": "[2]; Table 3, errors estimated ±30%", "result": "> 5", "unit": "µM"}, {"measurement": "IC50", "setting": "[3]; Table 2, read-out: IC50 values (μM) for LPS binding, E. coli 055:B4", "result": 3.4, "unit": "µM"}, {"measurement": "IC50", "setting": "[3]; [4]", "result": 3.4, "unit": "µM"}]}
